{"source": "patent US20230190796A1", "about": "“ENGINEERED CELLS EXPRESSING PROSTATE-SPECIFIC MEMBRANE ANTIGEN (PSMA) OR A MODIFIED FORM THEREOF AND RELATED METHODS” (Juno Therapeutics, Inc., priority 2017, published 2023)", "key": {"[1]": {"test_system": "T cells expressing anti-CD19 CAR/PSMA^(N9del)", "assay": "Cytolytic assay in the presence of DCFPyL", "assay_type": "cell-based, human", "conditions": "E:T 4:1; seven 3-fold serial dilutions of DCFPyL starting from 3.33×10^−6 M", "protocol": "Cytolytic activity was assessed by measuring the loss of viable target cells over a period of three days, as determined by red fluorescent signal (using the IncuCyte® Live Cell Analysis System, Essen Bioscience). The number of NLR+ target cells was determined every 2 hours over time from 0 hours to 66 hours. Where indicated, a killing index was determined as 1/area under the curve (AUC) of the NLR+ target cell count over time, from 0 hours to 66 hours.\nSpecifically, co-cultures were incubated with DCFPyL at one of seven (7) 3-fold serial dilutions of DCFPyL starting from 3.33×10^−6 M, or were incubated without DCFPyL (0 M)."}, "[2]": {"test_system": "T cells expressing anti-CD19 CAR/PSMA^(N9del)", "assay": "Cytokine release in co-culture in the presence of DCFPyL", "assay_type": "cell-based, human", "conditions": "E:T 4:1 and 1:1; eight 3-fold serial dilutions of DCFPyL starting from 1×10^−5 M", "protocol": "Specifically, accumulated amounts (pg/mL) of cytokine(s) (IL-2, IFN-gamma, TNF-alpha) were assessed following incubation of the target cells and the various populations of engineered cells, for a period of approximately 22-24 hours. Such assays provided a measure of antigen-specific cytokine secretion per CAR+ cell in the dose. In other assays, cytolytic activity against CD19-expressing target cells was assessed after incubation with the T cells.\nCytokine amounts in culture supernatants were determined using a multiplex cytokine immunoassay (Luminex®)."}}, "data": [{"smiles": "O=C(O)CCC(NC(=O)NC(CCCCNC(=O)c1ccc(F)nc1)C(=O)O)C(=O)O", "note": "(centres unmarked) [DCFPyL, 2-(3-{1-carboxy-5-[(6-fluoro-pyridine-3-carbonyl)-amino]-pentyl}-ureido)-pentanedioicacid]", "values": [{"measurement": "effect on cytolytic activity of T cells expressing anti-CD19 CAR/PSMA^(N9del)", "setting": "[1]", "result": "did not affect"}, {"measurement": "effect on IFN-γ production", "setting": "[2]", "result": "did not substantially affect"}]}]}
